Measured values taken from patent US11008332B2, “Pharmaceutical composition for preventing or treating aging-related diseases containing decursin derivative as active ingredient” (PRG S&TECH INC., priority 2017, dated 2021).
“And” between values parts separate entries of the source, which are not always exact repeats. Equal entries are not always repeated.

Experiments:
Plasma protein = Plasma protein binding, human; format: in vitro ADME
Experimental: In vitro ADME studies (plasma protein binding, CYP inhibition, microsomal stability, plasma stability and hERG inhibition) were performed by New drug development center though standard protocols.

[1] = Chemical pharmacokinetic (PK) analysis, blood/plasma concentration by LC-MS/MS; format: in vivo; settings: for Plasma concentration, Mean: n = 3
Experimental: For PK analysis, 5 mg/kg of JH4 in 10% DMSO, 5% Tween […] solution was intravenously injected and 10 mg/kg of JH4 in 10% NMP and 90% PEG400 solution was per orally delivered. At the setting time-points, blood concentration of JH4 was determined by LC-MS/MS analysis and the PK analysis for other chemicals was also tested by the similar protocol.

hERG ion channel = hERG ion channel (Homo sapiens, UniProt Q12809); experiment: hERG inhibition (in vitro ADME); settings: in vitro ADME analysis, FIG. 2B
hERG ion channel, sequence (Q12809 whole entry): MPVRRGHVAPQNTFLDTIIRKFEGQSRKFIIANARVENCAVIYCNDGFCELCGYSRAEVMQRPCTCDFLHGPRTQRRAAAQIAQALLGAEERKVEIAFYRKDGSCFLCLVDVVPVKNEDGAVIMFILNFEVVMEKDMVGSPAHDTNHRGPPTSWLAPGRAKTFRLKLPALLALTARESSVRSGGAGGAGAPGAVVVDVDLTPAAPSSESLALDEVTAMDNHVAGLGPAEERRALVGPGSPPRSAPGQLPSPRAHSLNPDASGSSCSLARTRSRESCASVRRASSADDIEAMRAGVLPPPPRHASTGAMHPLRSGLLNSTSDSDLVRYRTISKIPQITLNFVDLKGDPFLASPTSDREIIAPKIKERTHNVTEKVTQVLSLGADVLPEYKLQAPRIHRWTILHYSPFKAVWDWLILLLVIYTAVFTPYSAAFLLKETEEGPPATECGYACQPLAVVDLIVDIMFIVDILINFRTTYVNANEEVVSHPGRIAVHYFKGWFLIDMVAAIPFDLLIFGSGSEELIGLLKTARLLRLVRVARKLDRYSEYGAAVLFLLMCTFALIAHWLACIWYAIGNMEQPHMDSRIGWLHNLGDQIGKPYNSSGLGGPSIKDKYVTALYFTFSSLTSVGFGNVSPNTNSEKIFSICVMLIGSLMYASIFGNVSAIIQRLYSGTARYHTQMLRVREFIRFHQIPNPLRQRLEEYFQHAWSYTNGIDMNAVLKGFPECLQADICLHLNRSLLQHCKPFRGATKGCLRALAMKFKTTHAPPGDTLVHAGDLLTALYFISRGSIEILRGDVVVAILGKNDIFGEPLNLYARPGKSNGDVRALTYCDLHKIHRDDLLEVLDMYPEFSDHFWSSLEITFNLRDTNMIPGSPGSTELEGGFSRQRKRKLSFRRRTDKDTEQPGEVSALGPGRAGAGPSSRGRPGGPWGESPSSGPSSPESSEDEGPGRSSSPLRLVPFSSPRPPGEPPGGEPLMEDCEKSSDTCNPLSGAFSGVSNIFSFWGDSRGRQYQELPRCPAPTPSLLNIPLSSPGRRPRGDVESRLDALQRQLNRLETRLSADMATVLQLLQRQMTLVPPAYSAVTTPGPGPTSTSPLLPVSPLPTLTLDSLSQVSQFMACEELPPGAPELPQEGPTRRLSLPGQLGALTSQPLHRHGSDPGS

[2] = system: progerin expression in progerin-transfected 293 cells; experiment: Progerin expression analysis in progerin-transfected 293 cells (Western blot); format: cell-based; settings: 24 hours, FIG. 1D
Experimental: HEK293 cell line, obtained from ATCC, were maintained in liquid medium (DMEM) containing 10% FBS and 1% antibiotics at 37° C.
Whole-cell lysates were prepared in RIPA.
15 μg of cell extracts were separated by SDS-PAGE and transferred onto a PVDF membrane.
The membrane was incubated for 1 h to overnight at 4° C. with primary antibody, followed by reaction with a secondary antibody at room temperature for 1 h.
Peroxidase activity was detected by chemiluminescence with ECL kit (Intron, Seoul, Korea) as recommended by its manufacturer.

HGPS cells [3] = experiment: Immunofluorescence staining of HGPS cells (nuclear morphology, progerin, H3K9me3); format: cell-based, Human
Experimental: Human fibroblast cells from HGPS patients (AG03198, person; AG03199; person), WS patients (AG06300, person; AG03141, person; AG00780, person) and controls (GM 00038, person) were obtained from the Coriell Cell Repositories (Camden, N.J., USA) and were maintained in EMEM, containing 15% FBS, 2 mM glutamine or HEMEM with 26 mM HEPES without antibiotics.
Cells were seeded on a cover glass and transfected with the indicated vectors.
After fixing with 100% methanol or 1% paraformaldehyde (PFA) for 1 h at 4° C., cells were incubated with blocking buffer (PBS+anti-human-Ab; 1:400) for 1 h.
After washing with PBS twice, cells were incubated with anti-Lamin A/C, Progerin or H3K9Me3 in blocking buffer (1:200) overnight and sequentially with anti-goat Ab-FITC or anti-rabbit Ab-rhodamin in blocking buffer (1:500) for 7 h and mounted, and nucleus was stained with DAPI. Thereafter Immunofluorescence signal was detected by fluorescence microscopy (Zeiss and Logos).
For counting nuclear deformed cell, obtained immunofluorescence images were used. Nuclear membrane showing abnormalities, dependent on Lamin A staining, were counted from randomly selected field. Counted cells were calculated percentage.

progerin = biological target: T1, progerin (Homo sapiens, UniProt P02545); experiment: GST pull-down of bead-conjugated GST WRN-R1/WRN-R2 with GFP-progerin transfected 293 cell lysates; format: binding; settings: compared with WRN-R1, FIG. 4B
T1 construct: expressed in transfected cells; host or cells: HEK293
T1 sequence (P02545 1-614 isoform P02545-6): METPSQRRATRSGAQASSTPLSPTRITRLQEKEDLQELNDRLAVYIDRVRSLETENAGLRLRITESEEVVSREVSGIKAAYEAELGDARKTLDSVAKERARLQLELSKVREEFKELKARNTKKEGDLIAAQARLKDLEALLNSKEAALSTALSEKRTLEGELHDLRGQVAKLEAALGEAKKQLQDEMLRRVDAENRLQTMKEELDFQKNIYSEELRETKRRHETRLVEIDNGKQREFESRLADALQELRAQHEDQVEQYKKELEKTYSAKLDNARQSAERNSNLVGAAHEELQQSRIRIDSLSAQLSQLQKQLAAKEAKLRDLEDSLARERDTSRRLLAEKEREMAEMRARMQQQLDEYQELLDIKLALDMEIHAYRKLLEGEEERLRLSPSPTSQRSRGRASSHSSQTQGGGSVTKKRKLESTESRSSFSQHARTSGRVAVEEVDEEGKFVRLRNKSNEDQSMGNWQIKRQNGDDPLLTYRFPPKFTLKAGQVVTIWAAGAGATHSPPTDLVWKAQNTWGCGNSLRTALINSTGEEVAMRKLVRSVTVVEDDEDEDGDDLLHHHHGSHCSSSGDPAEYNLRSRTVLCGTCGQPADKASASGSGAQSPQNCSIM
Experimental: For the analysis of protein-protein interaction, Glutathione S-transferase (GST) pull-down assay was performed.
To detect the interaction, GST-bead-fused Lamin A-C-terminal region, Progerin-C-terminal region, WRN-R1 region or WRN-R2 region was incubated with GFP tagged Progerin (GFP-Progerin) and Lamin A (GFP-Lamin A) transfected HEK293 cell lysate for 30 min at RT.
After washing once with PBS, precipitated materials were collected and subjected into SDS-PAGE and western blot with anti-GFP and GST.

[4] = biological target: T2, progerin and Lamin A binding (Homo sapiens, UniProt P02545); experiment: Competition assay of WRN-R1 and R2 against progerin and Lamin A binding; settings: bead conjugated GST-progerin with GFP-Lamin A transfected 293 lysate, FIG. 4C
T2 construct: produced by cloning of 100 AA from upstream of the termination codon through PCR; made in house; GFP-Lamin A from transfected 293 cells
T2 sequence (P02545 1-614 isoform P02545-6): T1 sequence (P02545 1-614 isoform P02545-6)
Experimental: For the competition assay of WRN-R1 and R2 against progerin and Lamin A binding, bead-conjugated GST-progerin was incubated with GFP-Lamin A overexpressed 293 lysate with or without WRN-R1 or R2 recombinant protein.

Lmna^wt/G609G mice = experiment: Life span and morphology of Lmna^wt/G609G mice; format: in vivo, mouse
Water solubility = format: physicochemical
HGPS cells [5] = settings: previous report; cited from earlier work
[6] = system: Lmna^G609G/G609G, progeria model mouse; settings: intraperitoneal injection (i.p.), previous report; cited from earlier work
[7] = recombinant peptide delivered into HGPS cells with protein delivery agent, 24 hr, FIG. 4D
[8] = intravenous injection 5 mg/kg, 1 hr
[9] = intravenous injection 5 mg/kg, 2 hr
[10] = intravenous injection 5 mg/kg, 8 hr
[11] = intravenous injection 5 mg/kg, 24 hr
[12] = oral administration 10 mg/kg, 0.08 hr
[13] = oral administration 10 mg/kg, 0.25 hr
[14] = oral administration 10 mg/kg, 0.5 hr
[15] = oral administration 10 mg/kg, 1 hr
[16] = oral administration 10 mg/kg, 2 hr
[17] = oral administration 10 mg/kg, 4 hr
[18] = oral administration 10 mg/kg, 8 hr
[19] = oral administration 10 mg/kg, 24 hr
[20] = Lmna^wt/G609G mice, injection started from 43 weeks old, FIG. 2E

**Q.** Which “Plasma protein binding Human (% Bound)” value (Plasma protein) does the source give for `C[C@@H]1C[C@H]2[C@@H]3CCC4=CC(=O)C=C[C@]4(C)[C@@]3(F)[C@@H](O)C[C@]2(C)[C@@]1(O)C(=O)CO` [Dexamethasone] here?
**A.** 62.1 % Bound

**Q.** Which results are given for `CC1(C)Oc2cc3oc(=O)ccc3cc2CC1OC(=O)N/C=C/c1cccnc1` (stereo not shown) [JH010]?
**A.** bioavailability (B.A.) ([1]; PK analysis, FIG. 2A): 70%; PK profile ([1]; in vivo PK analysis, FIG. 2A): proper PK profile; hERG ion channel inhibition (hERG ion channel): hERG ion channel inhibition of the JH010 compound was confirmed; progerin expression [2]: inhibiting progerin expression; nuclear abnormality of HGPS cells (HGPS cells [3]; HGPS cells incubated 48 hr, FIG. 1E): improved nuclear abnormality of HGPS cells; H3K9me3 expression in HGPS cells (HGPS cells [3]; immunostaining, FIG. 1F): induced H3K9me3 expression

**Q.** Which “H3K9me3 expression in HGPS cells” value (HGPS cells [3]; [7]) does the source give for “WRN-R2: recombinant WRN-R2 region (hWRN 424-476), duplicated peptide HLSPNDNENDTSYVIESDEDELEMEMLK x2” here?
**A.** H3K9me3 expression was improved

**Q.** What about the “nuclear morphology of HGPS cells” value (HGPS cells [3]; [7]) of the same compound?
**A.** nuclear morphology was normalized

**Q.** And the binding to progerin (progerin)?
**A.** strongly binds to progerin

**Q.** And the “blocking of interaction of progerin and Lamin A” value [4]?
**A.** blocks the interaction of progerin and Lamin A

**Q.** For `CC1(C)Oc2cc3oc(=O)ccc3cc2C[C@@H]1OC(=O)/C=C/c1cccnc1` [JH4], which “disappearance after PO treatment” value ([1]; PO treatment, FIG. 1A) is on record?
**A.** very rapidly disappeared by PO treatment

**Q.** What about the “Plasma concentration, Mean” value ([1]; intravenous injection 5 mg/kg, 0.08 hr) of the same compound?
**A.** 4.7 ng/mL

**Q.** And the “Plasma concentration, individual subjects” value ([1]; intravenous injection 5 mg/kg, 0.08 hr, 5 mg/kg)?
**A.** 3.3 ng/mL and 4.6 ng/mL and 6.3 ng/mL

**Q.** And the “Plasma concentration, Mean” value ([1]; intravenous injection 5 mg/kg, 0.25 hr)?
**A.** 1.5 ng/mL

**Q.** And the “Plasma concentration, individual subjects” value ([1]; intravenous injection 5 mg/kg, 0.25 hr, 5 mg/kg)?
**A.** 1.7 ng/mL and 1.1 ng/mL and 1.8 ng/mL

**Q.** What about the “Plasma concentration, Mean” value ([1]; intravenous injection 5 mg/kg, 0.5 hr) of the same compound?
**A.** 0.6 ng/mL

**Q.** And the “Plasma concentration, individual subjects” value ([1]; intravenous injection 5 mg/kg, 0.5 hr, 5 mg/kg)?
**A.** 0.5 ng/ml (2×) and 0.7 ng/ml

**Q.** And the “Plasma concentration, individual subjects” value [1, 8]?
**A.** BQL (Below Quantifiable Limit (<1 ng/ml))

**Q.** What about the “Plasma concentration, Mean” value [1, 8] of the same compound?
**A.** BQL (Below Quantifiable Limit (<1 ng/ml))

**Q.** And the “Plasma concentration, individual subjects” value [1, 9]?
**A.** BQL (Below Quantifiable Limit (<1 ng/ml))

**Q.** What about the “Plasma concentration, Mean” value [1, 9] of the same compound?
**A.** BQL (Below Quantifiable Limit (<1 ng/ml))

**Q.** And the “Plasma concentration, Mean” value ([1]; intravenous injection 5 mg/kg, 4 hr)?
**A.** BQL (Below Quantifiable Limit (<1 ng/ml))

**Q.** What about the “Plasma concentration, individual subjects” value ([1]; intravenous injection 5 mg/kg, 4 hr, 5 mg/kg) of the same compound?
**A.** BQL (Below Quantifiable Limit (<1 ng/ml)) (2×) and BOL

**Q.** And the “Plasma concentration, individual subjects” value [1, 10]?
**A.** BQL (Below Quantifiable Limit (<1 ng/ml))

**Q.** What about the “Plasma concentration, Mean” value [1, 10] of the same compound?
**A.** BQL (Below Quantifiable Limit (<1 ng/ml))

**Q.** What about the “Plasma concentration, individual subjects” value [1, 11] of the same compound?
**A.** BQL (Below Quantifiable Limit (<1 ng/ml))

**Q.** And the “Plasma concentration, Mean” value [1, 11]?
**A.** BQL (Below Quantifiable Limit (<1 ng/ml))

**Q.** And the half-life in vivo ([1]; intravenously injected and orally administrated)?
**A.** very short half-life

**Q.** What about the “Plasma concentration, individual subjects” value [1, 12] of the same compound?
**A.** BQL (Below Quantifiable Limit (<1 ng/ml))

**Q.** What about the “Plasma concentration, Mean” value [1, 12] of the same compound?
**A.** BQL (Below Quantifiable Limit (<1 ng/ml))

**Q.** And the “Plasma concentration, individual subjects” value [1, 13]?
**A.** BQL (Below Quantifiable Limit (<1 ng/ml))

**Q.** And the “Plasma concentration, Mean” value [1, 13]?
**A.** BQL (Below Quantifiable Limit (<1 ng/ml))

**Q.** What about the “Plasma concentration, individual subjects” value [1, 14] of the same compound?
**A.** BQL (Below Quantifiable Limit (<1 ng/ml))

**Q.** What about the “Plasma concentration, Mean” value [1, 14] of the same compound?
**A.** BQL (Below Quantifiable Limit (<1 ng/ml))

**Q.** What about the “Plasma concentration, individual subjects” value [1, 15] of the same compound?
**A.** BQL (Below Quantifiable Limit (<1 ng/ml))

**Q.** And the “Plasma concentration, Mean” value [1, 15]?
**A.** BQL (Below Quantifiable Limit (<1 ng/ml))

**Q.** What about the “Plasma concentration, individual subjects” value [1, 16] of the same compound?
**A.** BQL (Below Quantifiable Limit (<1 ng/ml))

**Q.** What about the “Plasma concentration, Mean” value [1, 16] of the same compound?
**A.** BQL (Below Quantifiable Limit (<1 ng/ml))

**Q.** What about the “Plasma concentration, individual subjects” value [1, 17] of the same compound?
**A.** BQL (Below Quantifiable Limit (<1 ng/ml))

**Q.** What about the “Plasma concentration, Mean” value [1, 17] of the same compound?
**A.** BQL (Below Quantifiable Limit (<1 ng/ml))

**Q.** What about the “Plasma concentration, individual subjects” value [1, 18] of the same compound?
**A.** BQL (Below Quantifiable Limit (<1 ng/ml))

**Q.** And the “Plasma concentration, Mean” value [1, 18]?
**A.** BQL (Below Quantifiable Limit (<1 ng/ml))

**Q.** What about the “Plasma concentration, individual subjects” value [1, 19] of the same compound?
**A.** BQL (Below Quantifiable Limit (<1 ng/ml))

**Q.** What about the “Plasma concentration, Mean” value [1, 19] of the same compound?
**A.** BQL (Below Quantifiable Limit (<1 ng/ml))

**Q.** And the prolongation of life (Lmna^wt/G609G mice; Lamn^wt/G609G model)?
**A.** about 10 weeks

**Q.** And the average life span (Lmna^wt/G609G mice; [20])?
**A.** 54 weeks

**Q.** And the “maximum (max) life span” value (Lmna^wt/G609G mice; [20])?
**A.** 56 weeks

**Q.** And the water solubility (Water solubility)?
**A.** very low water solubility

**Q.** And the “aging-related markers in HGPS cells” value (HGPS cells [5])?
**A.** restored aging-related markers such as p16/INK4A, DNA-PK and H3K9me3 expression

**Q.** What about the “nuclear deformation of HGPS cells” value (HGPS cells [5]) of the same compound?
**A.** improved the nuclear deformation of HGPS cells

**Q.** And the “prolongation of progerin model mouse lifespan” value [6]?
**A.** about 4 weeks
